# In PubChem BioAssay (NCI):
# Several values for one entry are separate records, joined by “and”; a condition that tells them apart may be missing. Identical values can stand only once.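 All cell lines were grown in 96-well plates and treated with compound for 48 hours. GI50 is the concentration that inhibits growth by half. TGI: concentration producing complete growth inhibition.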
# Legend:
# Assay in all cases: NCI anticancer screen, dose series, 48 h
# EKVX NSCLC = tested on: EKVX NSCLC
# SNB-75 CNS = tested on: SNB-75 CNS
# ACHN renal = tested on: ACHN renal
# CCRF-CEM leukemia = tested on: CCRF-CEM leukemia
# CAKI-1 renal = tested on: CAKI-1 renal
# DU-145 prostate = tested on: DU-145 prostate
# NCI-H522 lung = tested on: NCI-H522 lung
# IGROV1 ovarian = tested on: IGROV1 ovarian
# NCI-H226 lung = tested on: NCI-H226 lung
# UACC-257 melanoma = tested on: UACC-257 melanoma
# SF-268 CNS = tested on: SF-268 CNS
# OVCAR-4 ovarian = tested on: OVCAR-4 ovarian
# UO-31 renal = tested on: UO-31 renal
# SK-MEL-2 melanoma = tested on: SK-MEL-2 melanoma
# SR leukemia = tested on: SR leukemia
# SK-MEL-28 melanoma = tested on: SK-MEL-28 melanoma
# MDA-MB-435 = tested on: MDA-MB-435
# SK-MEL-5 melanoma = tested on: SK-MEL-5 melanoma
# U251 CNS = tested on: U251 CNS
# LOX IMVI melanoma = tested on: LOX IMVI melanoma
# NCI/ADR-RES ovarian = tested on: NCI/ADR-RES ovarian
# OVCAR-5 ovarian = tested on: OVCAR-5 ovarian
# BT-549 breast = tested on: BT-549 breast
# RXF 393 renal = tested on: RXF 393 renal
# 786-0 renal = tested on: 786-0 renal
# HCT-116 colon = tested on: HCT-116 colon
# RPMI-8226 leukemia = tested on: RPMI-8226 leukemia
# SNB-19 CNS = tested on: SNB-19 CNS
# UACC-62 melanoma = tested on: UACC-62 melanoma
# MALME-3M melanoma = tested on: MALME-3M melanoma
compound,measurement,setting,value
C[C@H](NC(=O)c1c(N)nn2cccnc12)c1cc2cccc(C#Cc3cnn(C)c3)c2c(=O)n1-c1ccccc1,TGI,EKVX NSCLC,> 100 µM
same,GI50,SNB-75 CNS,0.679 µM and 0.531 µM
same,TGI,SNB-75 CNS,> 10 µM and 10.5 µM
same,GI50,ACHN renal,3.39 µM and 2.92 µM
same,TGI,ACHN renal,> 10 µM and 18.8 µM
same,GI50,CCRF-CEM leukemia,0.588 µM and 0.357 µM
same,TGI,CCRF-CEM leukemia,> 100 µM
same,GI50,CAKI-1 renal,3.81 µM
same,TGI,CAKI-1 renal,> 10 µM
same,GI50,DU-145 prostate,8.71 µM and 7.69 µM
same,TGI,DU-145 prostate,> 100 µM
same,GI50,NCI-H522 lung,5.27 µM and 10.5 µM
same,TGI,NCI-H522 lung,> 10 µM and 54.8 µM
same,GI50,IGROV1 ovarian,0.439 µM and 0.722 µM
same,TGI,IGROV1 ovarian,2.89 µM and 5.47 µM
same,GI50,NCI-H226 lung,> 10 µM and 11.8 µM
same,TGI,NCI-H226 lung,> 10 µM and 32.8 µM
same,GI50,UACC-257 melanoma,> 10 µM and 9.9 µM
same,TGI,UACC-257 melanoma,> 10 µM and 39.2 µM
same,GI50,SF-268 CNS,> 10 µM and 10.1 µM
same,TGI,SF-268 CNS,> 10 µM and 72.2 µM
same,GI50,OVCAR-4 ovarian,8.72 µM and 13.3 µM
same,TGI,OVCAR-4 ovarian,> 10 µM and 68.4 µM
same,GI50,UO-31 renal,0.666 µM and 0.981 µM
same,TGI,UO-31 renal,> 10 µM and 13.8 µM
same,GI50,SK-MEL-2 melanoma,> 10 µM and 6.61 µM
same,TGI,SK-MEL-2 melanoma,> 10 µM and 41.1 µM
same,GI50,SR leukemia,3.59 µM and 2.4 µM
same,TGI,SR leukemia,> 100 µM
same,GI50,SK-MEL-28 melanoma,3.08 µM and 3.9 µM
same,TGI,SK-MEL-28 melanoma,> 10 µM and 38.6 µM
same,GI50,MDA-MB-435,5.87 µM and 5.57 µM
same,TGI,MDA-MB-435,> 10 µM and 60.8 µM
same,GI50,SK-MEL-5 melanoma,4.54 µM and 12.3 µM
same,TGI,SK-MEL-5 melanoma,> 10 µM and 29.1 µM
same,GI50,U251 CNS,7.5 µM and 8.22 µM
same,TGI,U251 CNS,> 10 µM and 48.5 µM
same,GI50,LOX IMVI melanoma,3.44 µM
same,TGI,LOX IMVI melanoma,> 10 µM and 40 µM
same,GI50,NCI/ADR-RES ovarian,6.28 µM and 4.55 µM
same,TGI,NCI/ADR-RES ovarian,> 10 µM and 56 µM
same,GI50,OVCAR-5 ovarian,8.65 µM and 6.17 µM
same,TGI,OVCAR-5 ovarian,> 10 µM and 28.7 µM
same,GI50,BT-549 breast,1.6 µM and 1.42 µM
same,TGI,BT-549 breast,> 10 µM and 15.2 µM
same,GI50,RXF 393 renal,2.02 µM and 1.58 µM
same,TGI,RXF 393 renal,> 10 µM and 9.57 µM
same,GI50,786-0 renal,3.97 µM and 3.56 µM
same,TGI,786-0 renal,> 10 µM and 16.9 µM
same,GI50,HCT-116 colon,2.61 µM and 6.65 µM
same,TGI,HCT-116 colon,> 10 µM and 33.9 µM
same,GI50,RPMI-8226 leukemia,3.23 µM and 3.84 µM
same,TGI,RPMI-8226 leukemia,> 10 µM and 31.4 µM
same,GI50,SNB-19 CNS,6.27 µM and 10.4 µM
same,TGI,SNB-19 CNS,> 100 µM
same,GI50,UACC-62 melanoma,0.682 µM and 1.38 µM
same,TGI,UACC-62 melanoma,> 10 µM and 23.2 µM
same,TGI,MALME-3M melanoma,> 10 µM and 20 µM
